A word on the Ki: it is the equilibrium dissociation constant of an inhibitor or competing ligand from its target. By pKi is commonly meant the Ki on a negative log10 scale, so that one unit is a factor of ten.

pKi: −log10 of the molar value.

In the first test the target is HPK1. Briefly: HPK1 Lantha Binding Assay ("Lanth"). The following applies: Table B1-1, read-out: HPK1 Ki (μM) (Lanth). In outline: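 TR-FRET tracer displacement with 2 nM GST-tagged kinase, 2 nM Eu-anti-GST antibody and 15 nM Tracer222 at 23 C. Enzyme–antibody preincubated 1 h with compound, then tracer added for 1 h; 340 nm excitation, 615/665 nm emission. Ki from Morrison fit over an 11-point 5-fold dilution.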
Consider `COc1ccc(C)c(-c2cc3cc(NC(=O)C4C[C@H]4c4cnn(C)c4)ncc3c(N)n2)c1` (stereo partly drawn) [Compound 289, (1R,2R)—N-[8-amino-6-(5-methoxy-2-methylphenyl)-2,7-naphthyridin-3-yl]-2-(1-methyl-H-pyrazol-4-yl)cyclopropane-1-carboxamide], for which the Ki worked out at 7.39 nM.

Consider `Cc1ccc(C(=O)N(C)C)cc1-c1cc2cc(NC(=O)[C@H]3C[C@@H]3c3cnn(C)c3)ncc2c(N)n1` [Compound 290, 3-(1-amino-6-[[(1S,2S)-2-(1-methyl-1H-pyrazol-4-yl)cyclopropane]amido]-2,7-naphthyridin-3-yl)-N,N,4-trimethylbenzamide], for which the Ki was found to be 3.36 nM.

As for `Cc1ccncc1-c1cc2cc(NC(=O)[C@@H]3CC[C@H]3C)ncc2c(N)n1` [Compound 322, (1R,2R)—N-(8-amino-6-(4-methylpyridin-3-yl)-2,7-naphthyridin-3-yl)-2-methylcyclobutanecarboxamide], the inhibition constant (Ki) turned out to be 14.8 nM.

For `Cc1ccncc1-c1nc(N)c2cnc(NC(=O)Nc3cnn(C)c3)cc2c1F` [Compound 162, 1-[8-amino-5-fluoro-6-(4-methyl-3-pyridyl)-2,7-naphthyridin-3-yl]-3-(1-methylpyrazol-4-yl)urea], the inhibition constant (Ki) came out at 3.2 nM.

Take `Cc1ccc(C#N)cc1-c1cc2cc(NC(=O)[C@H]3C[C@@H]3c3cnn(C)c3)ncc2c(N)n1` [Compound 301, (1S,2S)—N-[8-amino-6-(5-cyano-2-methylphenyl)-2,7-naphthyridin-3-yl]-2-(1-methyl-1H-pyrazol-4-yl)cyclopropane-1-carboxamide]: the inhibition constant (Ki) was found to be 0.0692 nM.

`Cc1ccnc(-c2ccccc2)c1-c1cc2cc(NC(=O)[C@@H]3C[C@H]3c3cnn(C)c3)ncc2c(N)n1` [Compound 319, (1R,2R)—N-(8-amino-6-(4-methyl-2-phenylpyridin-3-yl)-2,7-naphthyridin-3-yl)-2-(1-methyl-1H-pyrazol-4-yl)cyclopropanecarboxamide]: the Ki was found to be 0.02 nM.

`CCc1ccncc1-c1cc2cc(Nc3cnn(C4CCNCC4)c3)ncc2c(N)n1` [Compound 78, 3-(4-Ethylpyridin-3-yl)-N6-(1-piperidin-4-yl-1H-pyrazol-4-yl)-[2,7] naphthyridine-1,6-diamine]: the inhibition constant (Ki) was 0.1 nM.

As for `COC(C)(C)C(=O)Nc1cc2cc(-c3cnccc3C)nc(N)c2cn1` [Compound 36, N-(8-amino-6-(4-methylpyridin-3-yl)-2,7-naphthyridin-3-yl)-2-methoxy-2-methylpropanamide], the Ki is 4080 nM.

In the case of `CCc1c(-c2cnccc2C)nc(N)c2cnc(NC(=O)[C@@H]3C[C@H]3CC#N)cc12` (stereo in doubt) [Compound 271, (1R,2S)—N-[8-amino-5-ethyl-6-(4-methylpyridin-3-yl)-2,7-naphthyridin-3-yl]-2-(cyanomethyl)cyclopropane-1-carboxamide], the Ki amounted to 0.768 nM.

`Cc1ccncc1-c1nc(N)c2cnc(NC(=O)[C@H]3C[C@@H]3CC#N)cc2c1Cl` [Compound 270, (1S,2R)—N-[8-amino-5-chloro-6-(4-methylpyridin-3-yl)-2,7-naphthyridin-3-yl]-2-(cyanomethyl)cyclopropane-1-carboxamide]: the Ki was 0.116 nM.

Take `CCc1ccncc1-c1cc2cc(NC(=O)c3cnn(C4CCNCC4)c3)ncc2c(N)n1` [Compound 84, 1-Piperidin-4-yl-1H-pyrazole-4-carboxylic acid [8-amino-6-(4-ethylpyridin-3-yl)-[2,7]naphthyridin-3-yl]amide]: the Ki amounted to 1.8 nM.

With `NCCOCCn1cc([C@H]2C[C@@H]2C(=O)Nc2cc3cc(-c4c(Cl)cccc4Cl)nc(N)c3cn2)cn1` [Compound 295, (1S,2S)—N-[8-amino-6-(2,6-dichlorophenyl)-2,7-naphthyridin-3-yl]-2-[1-[2-(2-aminoethoxy)ethyl]-1H-pyrazol-4-yl]cyclopropane-1-carboxamide], the inhibition constant (Ki) worked out at 0.287 nM.

As for `Nc1nc(-c2cnccc2CCO)cc2cc(NC(=O)[C@@H]3C[C@H]3c3cccnc3)ncc12` [Compound 253, (1R,2R)—N-[8-amino-6-[4-(2-hydroxyethyl)pyridin-3-yl]-2,7-naphthyridin-3-yl]-2-(pyridin-3-yl)cyclopropane-1-carboxamide], the Ki was determined as 0.0892 nM.

Turning to `NCCOCCn1cc([C@@H]2C[C@H]2C(=O)Nc2cc3cc(-c4c(Cl)cccc4Cl)nc(N)c3cn2)cn1` [Compound 296, (1R,2R)—N-[8-amino-6-(2,6-dichlorophenyl)-2,7-naphthyridin-3-yl]-2-[1-[2-(2-aminoethoxy)ethyl]-1H-pyrazol-4-yl]cyclopropane-1-carboxamide], the Ki stood at 0.026 nM.

With `Cc1ccncc1-c1cc2cc(NC(=O)NC3CNC3)ncc2c(N)n1` [Compound 175, 1-(8-amino-6-(4-methylpyridin-3-yl)-2,7-naphthyridin-3-yl)-3-(azetidin-3-yl)urea], the inhibition constant (Ki) stood at 3.4 nM.

Consider `Nc1nc(-c2cnccc2CCO)cc2cc(NC(=O)[C@H]3C[C@@H]3c3cnsc3)ncc12` [Compound 245, (1S,2S)—N-(8-amino-6-(4-(2-hydroxyethyl)pyridin-3-yl)-2,7-naphthyridin-3-yl)-2-(isothiazol-4-yl)cyclopropanecarboxamide], for which the inhibition constant (Ki) is 5.42 nM.

Turning to `Cc1ccncc1-c1cc2cc(NC(=O)N[C@H]3CCC[C@@H]3O)ncc2c(N)n1` [Compound 134, 1-[8-amino-6-(4-methyl-3-pyridyl)-2,7-naphthyridin-3-yl]-3-[(1S,2S)-2-hydroxycyclopentyl]urea], the inhibition constant Ki turned out to be 5.6 nM.

As for `Cc1ccncc1-c1cc2cc(NC(=O)[C@H]3C[C@@H]3CC#N)ncc2c(N)n1` [Compound 193, (1S,2R)—N-(8-amino-6-(4-methylpyridin-3-yl)-2,7-naphthyridin-3-yl)-2-(cyanomethyl)cyclopropane-1-carboxamide], the Ki turned out to be 0.135 nM.

In the case of `Cn1cc([C@@H]2C[C@H]2C(=O)Nc2cc3cc(-c4cnccc4CCO)nc(N)c3cn2)cn1` [Compound 214, (1R,2R)—N-(8-amino-6-(4-(2-hydroxyethyl)pyridin-3-yl)-2,7-naphthyridin-3-yl)-2-(1-methyl-1H-pyrazol-4-yl)cyclopropanecarboxamide], the Ki worked out at 0.039 nM.

Consider `COC(C)(C)[C@@H]1C[C@H]1C(=O)Nc1cc2cc(-c3cnccc3C)nc(N)c2cn1` [Compound 239, (1R,2R)—N-[8-amino-6-(4-methylpyridin-3-yl)-2,7-naphthyridin-3-yl]-2-(2-methoxypropan-2-yl)cyclopropane-1-carboxamide], for which the Ki came to 5.28 nM.

With `CCc1ccncc1-c1cc2cc(NCc3ccn[nH]3)ncc2c(N)n1` [Compound 105, N6-((1H-pyrazol-5-yl)methyl)-3-(4-ethylpyridin-3-yl)-2,7-naphthyridine-1,6-diamine], the inhibition constant (Ki) was found to be 40.2 nM.

For `N#CC[C@@H]1C[C@H]1C(=O)Nc1cc2cc(-c3c(Cl)cccc3Cl)nc(N)c2cn1` [Compound 311, (1R,2S)—N-(8-amino-6-(2,6-dichlorophenyl)-2,7-naphthyridin-3-yl)-2-(cyanomethyl)cyclopropanecarboxamide], the Ki is 1.15 nM.

`Cc1ccncc1-c1cc2cc(NC(=O)[C@@H]3C[C@H]3c3cnn(C)c3)ncc2c(N)n1` [Compound 198, (1R,2R)—N-(8-amino-6-(4-methylpyridin-3-yl)-2,7-naphthyridin-3-yl)-2-(1-methyl-H-pyrazol-4-yl)cyclopropane-1-carboxamide]: the inhibition constant (Ki) was 0.55 nM.

Take `CCc1ccncc1-c1cc2cc(Nc3cccc(CO)n3)ncc2c(N)n1` [Compound 83, {6-[8-amino-6-(4-ethylpyridin-3-yl)-[2,7]naphthyridin-3-ylamino]pyridin-2-yl}methanol]: the inhibition constant (Ki) turned out to be 0.3 nM.

`CCc1ccncc1-c1cc2cc(NC(=O)N(C)C)ncc2c(N)n1` [Compound 33, 3-[8-amino-6-(4-ethyl-3-pyridyl)-2,7-naphthyridin-3-yl]-1,1-dimethyl-urea]: the Ki stood at 34.1 nM.

As for `Cc1ccncc1-c1cc2cc(NC(=O)[C@@H]3[C@H](C)[C@H]3c3cnn(C)c3)ncc2c(N)n1` [Compound 329, (1R,2R,3R)—N-[8-amino-6-(4-methylpyridin-3-yl)-2,7-naphthyridin-3-yl]-2-methyl-3-(1-methyl-1H-pyrazol-4-yl)cyclopropane-1-carboxamide], the Ki came out at 2.65 nM.

Take `COCCn1cc([C@H]2C[C@@H]2C(=O)Nc2cc3cc(-c4cnccc4C)nc(N)c3cn2)cn1` [Compound 331, (1S,2S)—N-(8-amino-6-(4-methylpyridin-3-yl)-2,7-naphthyridin-3-yl)-2-(1-(2-methoxyethyl)-1H-pyrazol-4-yl)cyclopropanecarboxamide]: the Ki came to 1.12 nM.

Regarding `CCc1ccncc1-c1cc2cc(Nc3cnn(C)c3)ncc2c(N)n1` [Compound 74, 3-(4-Ethylpyridin-3-yl)-N6-(1-methyl-1H-pyrazol-4-yl)-[2,7]naphthyridine-1,6-diamine], the inhibitory constant (Ki) came out at 1.3 nM.

Regarding `Cc1ccncc1-c1cc2cc(NC(=O)[C@H]3C[C@@]34CCNC(=O)C4)ncc2c(N)n1` [Compound 314, (1S,3S)—N-[8-amino-6-(4-methylpyridin-3-yl)-2,7-naphthyridin-3-yl]-5-oxo-6-azaspiro[2.5]octane-1-carboxamide], the inhibition constant (Ki) was 13.1 nM.

With `CCc1ccncc1-c1cc2cc(NC(=O)C3CCC3)ncc2c(N)n1` [Compound 20, N-[8-amino-6-(4-ethyl-3-pyridyl)-2,7-naphthyridin-3-yl]cyclobutanecarboxamide], the Ki came out at 3.22 nM.

In the case of `Cc1ccncc1-c1cc2cc(NC(=O)C3CC34CNC4)ncc2c(N)n1` (centres unmarked) [Compound 113, N-[8-amino-6-(4-methyl-3-pyridyl)-2,7-naphthyridin-3-yl]-5-azaspiro[2.3]hexane-2-carboxamide], the inhibition constant (Ki) amounted to 3.53 nM.

The same test, now with this note: Table B1-2, read-out: HPK1 Ki, L = Lanth.
Take `Cc1cccc(F)c1-c1cc2cc(NC(=O)[C@H]3[C@@H](C)[C@@H]3c3cnn(C)c3)ncc2c(N)n1` [Compound 355, (1S,2S,3S)—N-[8-amino-6-(2-fluoro-6-methylphenyl)-2,7-naphthyridin-3-yl]-2-methyl-3-(1-methyl-1H-pyrazol-4-yl)cyclopropane-1-carboxamide]: the negative logarithm of the Ki (pKi) is 8.74.

The values above are taken from US11034692B1 (Genentech, Inc., priority 2017, dated 2021).
